Like-named read-outs stand apart in the source and are kept apart here.
What was measured:
[1] = tested on: human whole blood; test: In vitro thrombus formation under arterial flow conditions on collagen-coated Vena8 biochips; assay type: cell-based; conditions: 100 μM compound
Procedure: Platelet activation under arterial flow conditions culminates in the formation of thrombus at the damaged blood vessels and thereby reducing the blood supply to target tissues.
(§1) Thrombus formation was monitored by capturing Z-stack fluorescent images at every 30 seconds over 10 minutes by fluorescence microscopy. The images shown (A) at different time points and traces (B) are representative of three separate experiments. […] Data represent ± S.D. (n = 8 mice in each group).
Z-stack images of thrombi were obtained every 30 seconds for up to 10 minutes using a Nikon eclipse (TE2000-U) microscope (Nikon Instruments, UK). The median fluorescence intensity and thrombus volume were calculated by analysing the images using ImageJ.

[2] = tested on: human washed platelets; test: CRP-XL-induced aggregation of human washed platelets (optical aggregometry); assay type: cell-based; conditions: CRP-XL 0.5 μg/mL
Procedure: To determine the effects of chrysin and thio-chrysin and their Ru-complexes in the modulation of platelet activation, aggregation assays were performed using cross-linked collagen-related peptide (CRP-XL) as a platelet agonist, by optical aggregometry. Firstly, to determine the effects of chrysin and its derivatives on isolated platelets, aggregation assays were performed using human washed platelets (devoid of plasma proteins and other blood cells).
Figure 2 Effects of chrysin and its derivatives in washed platelet aggregation. […] The aggregation traces shown are representative of three separate experiments.
The preparation of human platelets and aggregation assays were performed using standard protocols as described by us previously, [16]. Briefly, human blood was collected in 3.2% citrate containing vacutainers via venepuncture from healthy, aspirin-free individuals with informed consent in accordance with the methods approved by the University of Reading Research Ethics Committee. All methods were performed in accordance with the relevant institutional and national guidelines and regulations. Blood samples were centrifuged at 102 g for 20 minutes at room temperature to separate the PRP, which was used in aggregation, flow cytometry, static platelet adhesion, calcium mobilisation and clot retraction assays. For the preparation of washed platelets, 50 mL of blood samples were mixed with 7.5 mL of ACD (acid citrate dextrose) (20 g/L glucose, 25 g/L sodium citrate and 15 g/L citric acid) and centrifuged at 102 g for 20 minutes at room temperature. The PRP was carefully aspirated from the other blood cells prior to mixing with 3 mL of ACD and centrifuging at 1413 g for 10 minutes at room temperature. The resulting platelet pellet was re-suspended in modified Tyrodes-HEPES buffer (2.9 mM KCl, 134 mM NaCl, 0.34 mM Na2HPO4.12H20, 1 mM MgCl2, 12 mM NaHCO3, 20 mM HEPES, pH 7.3) and washed by centrifuging again at 1413 g for 10 minutes. The resulting platelet pellet was suspended in modified Tyrodes-HEPES buffer at a density of 4 × 10^8 cells/mL for aggregation, dense granule secretion, cellular uptake studies and calcium mobilisation assays. Human platelet aggregation was performed using CRP-XL as an agonist in the presence and absence of various concentrations of chrysin and its synthetic derivatives by optical aggregometry. A vehicle control [DMSO at a concentration of less than 0.1% (v/v)] was included in all the experiments. Dense granule secretion in platelets was determined by measuring the ATP release using the luciferin-luciferase reagent by lumi-aggregometry (Chrono-Log, USA). SDS-PAGE and immunoblotting analysis were performed using standard protocols. The rabbit anti-phospho-specific antibodies for human AKT pS473, FAK pY397 and Src pY527 were obtained from Abcam, UK and rabbit anti-human 14-3-3ζ (Santa Cruz Biotechnology, USA) was used to detect protein 14-3-3ζ as a loading control in immunoblot assays. The Cy5-conjugated goat anti-rabbit IgG (Life technologies, UK) was used as the secondary antibody.

[3] = tested on: α-granule secretion in platelets; test: P-selectin exposure by flow cytometry (marker for α-granule secretion); assay type: cell-based, human; conditions: PRP, CRP-XL 0.5 μg/mL
Procedure: Platelets primarily contain two types of granules (α- and dense granules) and the activation of platelets releases the granule contents to the external environment, where they play important roles in the stimulation of additional platelets and their recruitment to the growing thrombus. […] However, chrysin affected α-granule secretion only at a minimum concentration of 50 μM in platelets.
(§2) Figure 5 Chrysin and its derivatives affect granule secretion in platelets. […] The level of P-selectin (as a marker for α-granule secretion) was quantified using PECy5-labelled anti-human P-selectin antibodies by flow cytometry. […] R represents ‘resting’ platelets. […] Platelets were then activated with 0.5 μg/mL CRP-XL and the ATP release was monitored for 5 minutes by lumi-aggregometry. The traces shown are representative of three separate experiments.

[4] = tested on: dense granule secretion in washed platelets; test: ATP release by lumi-aggregometry (marker for dense granule secretion); assay type: cell-based, human; conditions: 100 μM compound, CRP-XL 0.5 μg/mL
Procedure: as §2
The preparation of human platelets and aggregation assays were performed using standard protocols as described by us previously, [16]. Briefly, human blood was collected in 3.2% citrate containing vacutainers via venepuncture from healthy, aspirin-free individuals with informed consent in accordance with the methods approved by the University of Reading Research Ethics Committee. All methods were performed in accordance with the relevant institutional and national guidelines and regulations. Blood samples were centrifuged at 102 g for 20 minutes at room temperature to separate the PRP, which was used in aggregation, flow cytometry, static platelet adhesion, calcium mobilisation and clot retraction assays. […] Dense granule secretion in platelets was determined by measuring the ATP release using the luciferin-luciferase reagent by lumi-aggregometry (Chrono-Log, USA). […]

[5] = tested on: haemostasis in mice; test: Tail bleeding assay; assay type: in vivo, C57BL/6 mice; conditions: final concentration 25 μM via femoral artery, 5 minutes before tail tip dissection, control 445 seconds
Procedure: as §1, with “group). The p values shown (*p < 0.05 and ***p < 0.001) are as calculated by non-parametric Mann-Whitney test using Graphpad Prism.” for “group).”
Following five minutes incubation, 1 mm of tail tip was dissected and the bleeding time was monitored.
The University of Reading Local Ethical Review Panel and the British Home Office approved the tail-bleeding assay performed in this study. All methods were performed in accordance with the relevant guidelines and regulations. In brief, C57BL/6 mice (9 weeks old; Envigo, UK) were anaesthetized using ketamine (80 mg kg^−1) and xylazine (5 mg kg^−1) administered via intraperitoneal route 20 minutes prior to the experiment and placed on a heated pad (37 °C). […] The tail tip was placed in sterile saline at 37 °C and the time to cessation of bleeding was measured up to 20 minutes.

[6] = tested on: human washed platelets; test: Intracellular calcium mobilisation in washed platelets (Fluo-4 AM); assay type: cell-based; conditions: CRP-XL 0.5 μg/mL
Procedure: Based on the above results achieved in washed platelets and PRP, chrysin and Ru-thio-chrysin were tested to evaluate their effects on the modulation of calcium mobilisation.
The calcium traces (Ai and Bi) shown are representative of three separate experiments. The maximum fluorescence obtained with each sample was converted into percentages to calculate the level of calcium mobilisation obtained with vehicle and chrysin or Ru-thio-chrysin treated samples.
The intracellular calcium levels in platelets were measured using Fluo-4 AM calcium-sensitive dye by spectrofluorimetry. […] Data were analysed by calculating the maximum level of calcium released in each sample.

[7] = tested on: inside-out signalling to integrin αIIbβ3; conditions: PRP, CRP-XL 0.5 μg/mL
Procedure: The level of fluorescence obtained with vehicle control was taken as 100% to calculate the extent of inhibition in chrysin and its derivatives-treated samples. R represents ‘resting’ platelets. Cumulative data represent mean ± S.D. (n = 4). […] Following incubation, clotting was initiated by the addition of 1 U/mL thrombin and the clot retraction was monitored for three hours. The remaining clot weight at three hours was measured to analyse the extent of retraction process. The image shown on the right is representative of four separate experiments. *Indicates significance with respect to controls and ^#indicates significance with respect to the respective chrysin concentrations; p values shown (*^,# p < 0.05, **^,## p < 0.01 and ***^,### p < 0.001) are as calculated by one-way ANOVA using Graphpad Prism.
The platelets (PRP) were treated with a vehicle control [0.1% (v/v) DMSO] or with different concentrations of chrysin and its synthetic derivatives prior to activation with CRP-XL (0.5 µg/mL). The levels of fibrinogen binding and P-selectin exposure were measured using FITC-labelled anti-human fibrinogen antibodies (Dako, UK) and PECy5-labelled CD62P antibodies (BD Biosciences, UK), respectively. The median fluorescence intensity was used to assess the levels of fibrinogen binding and P-selectin exposure on the platelet surface. The level of fluorescence obtained with the vehicle control was taken as 100% when compared with the treated samples.

[8] = tested on: human platelet-rich plasma; conditions: PRP; 100 μM compound; CRP-XL 0.5 μg/mL
Source text: The calcium traces (Ai and Bi) shown are representative of three separate experiments. […] The platelets were lysed and used for immunoblot analysis to detect the level of AKT phosphorylation at residue S473, FAK phosphorylation at Y397 and phosphorylation of Src at Y527. The level of 14-3-3ζ protein was detected as a loading control. The cropped images of the blots shown here are representative of three separate experiments. The uncropped full length blots are presented in Supplementary Information (Figure S8).

| Compound | inhibition at 100 µM ([1]; 10 min, 20 dynes/cm^2, read-out: inhibition of thrombus growth and volume) [%] | reduction in CRP-XL-induced platelet aggregation ([2]; 6.25 μM compound) | effect on CRP-XL-induced platelet aggregation in washed platelets [2] | concentrations that significantly inhibit α-granule secretion [3] [µM] | inhibition at 100 µM ([4]; Homo sapiens, Platelet) [%] | bleeding time (average) [5] [s] | effect on calcium mobilisation in washed platelets [6] | inhibition of thrombus growth and volume ([1]; 20 dynes/cm^2, 10 minutes) | inhibition of fibrinogen binding ([7]; 6.25 μM compound) | inhibition of fibrinogen binding ([7]; 100 μM compound) [%] | inhibition of α-granule secretion (P-selectin) ([3]; 100 μM compound) | inhibition of dense granule secretion (ATP release) [4] [%] | reduction in calcium mobilisation [8] |
| --- | --- | --- | --- | --- | --- | --- | --- | --- | --- | --- | --- | --- | --- |
| O=c1cc(-c2ccccc2)oc2cc(O)cc(O)c12 [chrysin] | ~50 | approximately 80% | inhibited CRP-XL (0.5 μg/mL)-induced aggregation in washed platelets in a concentration-dependent manner | ≥ 50 | 100 | 901 | greater inhibitory effects on calcium mobilisation than Ru-thio-chrysin |  |  |  |  |  |  |
| chlorido [(5-oxo-κO)-7-hydroxy-(2-phenyl)-4H-chromen-4-thionato-κS] (η6-p-cymene)ruthenium(II) [Ru-thio-chrysin] |  |  | inhibited CRP-XL-induced platelet aggregation in a concentration-dependent manner | ≥ 12.5 |  | 1096 |  | approximately 75% | 15–20% | ~90 | approximately 80% | 100 | around 60% |
